Results on 4 molecules are retold here after paper PMC10312992 (ACS Omega, 2023).

One data set relates to α-glucosidase. The experiment in a line: α-glucosidase inhibition assay. It is filed as biochemical. Conditions: at 0.5 mM; mean ± S.E.M., n = 3.
Data set [1] concerns erythrocytes (heparinized bovine blood). As to the kind of experiment: hemolytic activity. It is filed as cell-based. Particulars: 35 min at 37 °C, 10^8 cells/mL; PBS negative control 2.45 ± 0.01%.

Consider `CC(Sc1nnc(Cc2c[nH]c3ccccc23)o1)C(=O)NCCc1ccccc1` (stereo not shown) [8d, N-(2-Phenethyl)-2-({5-((1H-indol-3-yl)methyl)-1,3,4-oxadiazol-2-yl}sulfanyl)propanamide], for which the “α-glucosidase (%) inhibition” value in the data set on α-glucosidase is 93.38 ± 0.38%. Besides, the “hemolysis (%)” value in data set [1] turned out to be 0.05 ± 0.01%.
Taken in the same sequence, the figures for `CCc1ccccc1NC(=O)C(C)Sc1nnc(Cc2c[nH]c3ccccc23)o1` (stereo not shown) [8h, N-(2-Ethylphenyl)-2-({5-((1H-indol-3-yl)methyl)-1,3,4-oxadiazol-2-yl}sulfanyl)propanmide] were 98.21 ± 0.31% and 0.83 ± 0.01%.
For `COC(=O)c1ccccc1NC(=O)C(C)Sc1nnc(Cc2c[nH]c3ccccc23)o1` (stereo not shown) [8l, N-((2-Methoxycarbonyl)phenyl)-2-({5-((1H-indol-3-yl)methyl)-1,3,4-oxadiazol-2-yl}sulfanyl)propanamide] the same measures were 97.56 ± 0.57% and 8.16 ± 0.02%.
On to `C[C@H]1O[C@H](O[C@H]2[C@H](O)[C@@H](O)[C@@H](O[C@H]3[C@H](O)[C@@H](O)C(O)O[C@@H]3CO)O[C@@H]2CO)[C@H](O)[C@@H](O)[C@@H]1N[C@H]1C=C(CO)[C@@H](O)[C@H](O)[C@H]1O` (stereo partly shown) [acarbose, reference compound], for which the “α-glucosidase (%) inhibition” value in the data set with α-glucosidase is listed as 92.23 ± 0.14%.
